Key:
Format in all cases: cell-based
[1] = test system: Salmonella choleraesuis ATCC 10708; experiment: AOAC Official Method 961.02 Germicidal Spray Method, bacteria on glass carriers; details: 10 min contact
Method: All experiments were conducted according to the protocol outlined in AOAC Official Method 961.02 (Germicidal Spray Method), which is a carrier-based method used to evaluate disinfection efficacy of aerosol/pump-based spray products and liquid products for registration with regulatory agencies such as the U.S. EPA and Health Canada.
(§1) In this method, a series of glass slides (“carriers”) were inoculated with a representative test organism and the carriers were dried under ambient conditions. The dried organisms on the surface of the carrier were then sequentially treated with the composition of the present disclosure in the form of a spray product and were exposed for a pre-determined exposure time. After exposure, the carriers were sequentially transferred to a liquid subculture medium specifically selected to neutralize the composition of the present disclosure and to recover any surviving test organism. The carriers were incubated and visually examined for the presence or absence of growth. […] Required organisms for a disinfection claim include but are not limited to Staphylococcus aureus, Salmonella choleraesuis and Pseudomonas aeruginosa.
Method Adapted to the Preparation of Bacteria Cultures from −80° C. Freshly Recovered Stock. […]

[2] = test system: Trichophyton mentagrophytes ATCC 9533; experiment: AOAC Official Method 961.02 Germicidal Spray Method, fungal conidia on glass carriers; details: 10 min contact
Text: as §1
(§2) The conidiospore suspension was macerated in a tissue grinder. The suspension was filtered through sterile cotton to remove the hyphae and hyphal fragments.
(§3) Vortex-mixed the inoculum periodically during inoculation of the carriers. • Immediately spread the inoculum uniformly over the majority of the carrier surface using a sterile loop. […] High volume screening studies were conducted in some cases where only 4 organism-inoculated carriers were treated at specified concentrations of CTAB. Once all of the carriers had been inoculated, the carriers were placed in an incubator at 37° C. for 40 minutes until completely dry.
(§4) • After drying, each carrier was sprayed with the respective disinfection formulae 10 times in 10 seconds at a distance of 30 cm. • Timed the treatment interval. Ten (10) minutes after each carrier had been exposed to the disinfectant, the excess liquid was removed and the carriers were transferred in a sequentially timed fashion into the culture tubes containing 20 ml neutralization broth (Letheen Broth with 0.07% Lecithin /0.5% Tween 80) to neutralize the disinfectant. • After the carriers were deposited in the respective culture tubes, the tubes were recapped and the cultures were thoroughly resuspended. • Incubated all neutralization tubes at 28 ±1° C. for 14 days. • After 14 days, the cultures within the tubes were examined for growth. The percentage of the treated carriers showing growth was recorded.

[3] = test system: Penicillium variable ATCC 32333; experiment: as above; details: 10 min contact
Text: as §1, §2, §3, §4

[4] = test system: Aspergillus niger ATCC 6275; experiment: as above; details: 10 min contact
Text: as §1, §2, §3, §4

[5] = test system: Pseudomonas aeruginosa ATCC 15442; experiment: AOAC Official Method 961.02 Germicidal Spray Method, bacteria on glass carriers; details: for Pseudomonas aeruginosa Growth Rate: 10 min contact
Text: as §1
(§5) Method Adapted to the Preparation of Bacteria Cultures from −80° C. Freshly Recovered Stock. […] Added 10 μL of the thawed stock to a tube containing 10 mL synthetic broth and then vortexed to mix. Discarded the rest of cryovial stock. • Incubated the tube at 36 ±1° C. for 24 hours (h). Briefly vortexed the 24 h culture prior to transfer. For this final subculture step, inoculated two 20×150 mm tubes containing 10 mL synthetic broth with […] of the 24 h synthetic broth culture. • Incubated 48 h at 36±1° C. Using a Vortex-style mixer, mixed synthetic broth test cultures 3-4 seconds and let stand 10 minutes at room temperature before continuing. Removed the upper portion of each culture, leaving behind any debris or clumps, and transferred to a sterile tube. Titrated the culture by plating on synthetic agar plates, and diluted to 5×10^8 Colony Forming Units (CFU) per mL.
(§6) High volume screening studies were conducted in some cases where only 4 organism-inoculated carriers were treated at specified concentrations of CTAB. Vortex-mixed the inoculum periodically during inoculation of the carriers. • Immediately spread the inoculum uniformly over the majority of the carrier surface using a sterile loop. […] Covered dish immediately and repeated operation until 64 carriers had been prepared for the test. Once all of the carriers had been inoculated, placed in incubator at 37° C. for 40 minutes until dry.
(§7) • After the test organisms were dried on the surface of the carrier, each carrier was sprayed with the respective disinfection formulae 10 times in 10 seconds at a distance of 30 cm. • Treatment interval was timed. Ten (10) minutes after each carrier had been sprayed by the disinfectant, the excess liquid was removed and the carriers were transferred in a sequentially timed fashion into the culture tubes containing 20 ml neutralizer (Letheen Broth with 0.07% Lecithin/0.5% Tween 80/0.1% Sodium Thiosulfate) to neutralize the disinfectant. […] The percentage of the treated carriers showing growth after 48 hours was recorded.

[6] = test system: Staphylococcus aureus ATCC 6538; experiment: as above; details: 10 min contact
Text: as §1, §5, §6, §7

## CCCCCCCCCCCCCCCC[N+](C)(C)C.[Br-] [CTAB, cetyltrimethylammonium bromide]
[1]; CTAB 0.0100% in water (no CMC)
  Salmonella choleraesuis Growth Rate: 100%
[1]; CTAB 0.1000% in water (no CMC)
  Salmonella choleraesuis Growth Rate: 0%
[2]; CTAB 0.0010% in water (no CMC)
  Trichophyton mentagrophytes Growth Rate: 0%
[2]; CTAB 0.0100% in water (no CMC)
  Trichophyton mentagrophytes Growth Rate: 0%
[2]; CTAB 0.0500% in water (no CMC)
  Trichophyton mentagrophytes Growth Rate: 0%
[3]; CTAB 0.0010% in water (no CMC)
  Penicillium variable Growth Rate: 100%
[3]; CTAB 0.0100% in water (no CMC)
  Penicillium variable Growth Rate: 0%
[3]; CTAB 0.0500% in water (no CMC)
  Penicillium variable Growth Rate: 0%
[3]; CTAB 0.1000% in water (no CMC)
  Penicillium variable Growth Rate: 0%
[4]; CTAB 0.0010% in water (no CMC)
  Aspergillus niger Growth Rate: 100%
[4]; CTAB 0.0100% in water (no CMC)
  Aspergillus niger Growth Rate: 100%
[4]; CTAB 0.0500% in water (no CMC)
  Aspergillus niger Growth Rate: 100%
[4]; CTAB 0.1000% in water (no CMC)
  Aspergillus niger Growth Rate: 100%
[5]; CTAB 0.0010% in water (no CMC)
  Pseudomonas aeruginosa Growth Rate: 100%
[5]; CTAB 0.0100% in water (no CMC)
  Pseudomonas aeruginosa Growth Rate: 100%
[5]; CTAB 0.0500% in water (no CMC)
  Pseudomonas aeruginosa Growth Rate: 100%
[5]; CTAB on its own in water, 0.05%
  efficacy against Pseudomonas: ineffective
[6]; CTAB 0.0010% in water (no CMC)
  Staphylococcus aureus Growth Rate: 100%
[6]; CTAB 0.0100% in water (no CMC)
  Staphylococcus aureus Growth Rate: 100%
[6]; CTAB 0.0500% in water (no CMC)
  Staphylococcus aureus Growth Rate: 40%
[6]; CTAB 0.1000% in water (no CMC)
  Staphylococcus aureus Growth Rate: 40%

Reference: US20200245616A1, “A Disinfectant Composition with Extended Antimicrobial Effects” (Siamons International Inc., priority 2017, published 2020)
